Tests used:
Format in all cases: in vivo
[1] = test system: Diabrotica balteata (Corn root worm); experiment: Diabrotica balteata (Corn root worm); details: 96 h, application rate of 200 ppm, maize sprouts sprayed, L2 larvae, 4 days after infestation, read-out: effect in at least one of the two categories (mortality or growth inhibition)
Protocol: Example B2: Diabrotica balteata (Corn root worm)
Maize sprouts placed onto an agar layer in 24-well microtiter plates were treated with aqueous test solutions prepared from 10′000 ppm DMSO stock solutions by spraying. After drying, the plates were infested with L2 larvae (6 to 10 per well). The samples were assessed for mortality and growth inhibition in comparison to untreated samples 4 days after infestation.

[2] = test system: Euschistus heros (Neotropical Brown Stink Bug); experiment: Euschistus heros (Neotropical Brown Stink Bug); details: 120 h, application rate of 200 ppm, soybean leaves sprayed, N2 nymphs, 5 days after infestation, read-out: effect in at least one of the two categories (mortality or growth inhibition)
Protocol: Example B3: Euschistus heros (Neotropical Brown Stink Bug)
Soybean leaves on agar in 24-well microtiter plates were sprayed with aqueous test solutions prepared from 10′000 ppm DMSO stock solutions. After drying the leaves were infested with N2 nymphs. The samples were assessed for mortality and growth inhibition in comparison to untreated samples 5 days after infestation.

[3] = test system: Frankliniella occidentalis (Western Flower Thrips); experiment: Frankliniella occidentalis (Western Flower Thrips) Feeding/Contact Activity, bean leaf discs; details: foliar, 96 h, application rate of 200 ppm, bean leaf discs sprayed, population of mixed ages, 4 days after infestation, read-out: growth inhibition
Protocol: (§1) Example B5: Frankliniella occidentalis (Western Flower Thrips) Feeding/Contact Activity Bean leaf discs were placed on agar in 24-well microtiter plates and sprayed with aqueous test solutions prepared from […] stock solutions. After drying the leaf discs were infested with a Frankliniella population of mixed ages. The samples were assessed for mortality 4 days after infestation.

[4] = test system: Myzus persicae (Green Peach Aphid); experiment: Myzus persicae (Green Peach Aphid). Intrinsic Activity; details: 120 h, test rate of 12 ppm, mixed with sucrose solution, feeding through Parafilm, 5 days after infestation
Description: Example B7: Myzus persicae (Green Peach Aphid). Intrinsic Activity
Test compounds prepared from 10′000 ppm DMSO stock solutions were applied by pipette into 24-well microtiter plates and mixed with sucrose solution. The plates were closed with a stretched Parafilm. A plastic stencil with 24 holes was placed onto the plate and infested pea seedlings were placed directly on the Parafilm. The infested plate was closed with a gel blotting paper and another plastic stencil and then turned upside down. The samples were assessed for mortality 5 days after infestation.

[5] = test system: Myzus persicae (Green Peach Aphid); experiment: Myzus persicae (Green Peach Aphid) Feeding/Contact Activity, eggplant leaf discs; details: foliar, 144 h, application rate of 200 ppm, eggplant leaf discs sprayed, aphid population of mixed ages, 6 days after infestation, read-out: growth inhibition
Description: Example B8: Myzus persicae (Green Peach Aphid) Feeding/Contact Activity Eggplant leaf discs were placed onto agar in a 24-well microtiter plate and sprayed with aqueous test solutions prepared from 10′000 ppm DMSO stock solutions. After drying, the leaf discs were infested with an aphid population of mixed ages. […]

[6] = test system: Plutella xylostella (Diamond back moth); experiment: Plutella xylostella (Diamond back moth); details: 192 h, application rate of 200 ppm, artificial diet treated by pipetting, Plutella eggs, 8 days after infestation, read-out: effect in at least one of the two categories (mortality or growth inhibition)
Protocol: After drying, Plutella eggs were pipetted through a plastic stencil onto a gel blotting paper and the plate was closed with it. The samples were assessed for mortality and growth inhibition in comparison to untreated samples 8 days after infestation.

[7] = test system: Spodoptera littoralis (Egyptian Cotton Leaf Worm); experiment: Spodoptera littoralis (Egyptian Cotton Leaf Worm); details: foliar, 72 h, application rate of 200 ppm, cotton leaf discs sprayed, five L1 larvae, 3 days after infestation, read-out: control (mortality, anti-feeding effect, growth inhibition)
Protocol: Example B10: Spodoptera littoralis (Egyptian Cotton Leaf Worm)
Cotton leaf discs were placed onto agar in 24-well microtiter plates and sprayed with aqueous test solutions prepared from 10′000 ppm DMSO stock solutions. After drying the leaf discs were infested with five L1 larvae. The samples were assessed for mortality, anti-feeding effect, and growth inhibition in comparison to untreated samples 3 days after infestation. Control of Spodoptera littoralis by a test sample is given when at least one of the categories mortality, anti-feedant effect, and growth inhibition is higher than the untreated sample.

[8] = test system: Tetranychus urticae (Two-Spotted Spider Mite); experiment: Tetranychus urticae (Two-Spotted Spider Mite): Feeding/Contact Activity; details: foliar, 192 h, application rate of 200 ppm, bean leaf discs sprayed, mite population of mixed ages (mobile stages), 8 days after infestation
Protocol: Example B11: Tetranychus urticae (Two-Spotted Spider Mite):Feeding/Contact Activity
Bean leaf discs on agar in 24-well microtiter plates were sprayed with aqueous test solutions prepared from 10,000 ppm DMSO stock solutions. After drying the leaf discs were infested with a mite population of mixed ages. The samples were assessed for mortality on mixed population (mobile stages) 8 days after infestation.

[9] = test system: Myzus persicae (Green Peach Aphid); experiment: Myzus persicae (Green Peach Aphid): Feeding/Contact Activity, sunflower leaf discs; details: foliar, 144 h, application rate of 200 ppm, sunflower leaf discs sprayed, aphid population of mixed ages, 6 days after infestation
Protocol: Example B6: Myzus persicae (Green Peach Aphid):Feeding/Contact Activity
Sunflower leaf discs were placed onto agar in a 24-well microtiter plate and sprayed with aqueous test solutions prepared from 10′000 ppm DMSO stock solutions. After drying, the leaf discs were infested with an aphid population of mixed ages. The samples were assessed for mortality 6 days after infestation.

[10] = test system: Frankliniella occidentalis (Western Flower Thrips); experiment: Frankliniella occidentalis (Western Flower Thrips): Feeding/Contact Activity, sunflower leaf discs; details: foliar, 168 h, application rate of 200 ppm, sunflower leaf discs sprayed, population of mixed ages, 7 days after infestation
Protocol: Example B4: Frankliniella occidentalis (Western Flower Thrips):Feeding/Contact Activity
as §1, with “Sunflower leaf” for “Example B5: Frankliniella occidentalis (Western Flower Thrips) Feeding/Contact Activity Bean leaf”, “mortality 7” for “mortality 4”

[11] = test system: Bemisia tabaci (Cotton White Fly); experiment: Bemisia tabaci (Cotton White Fly): Feeding/Contact Activity; details: foliar, 144 h, application rate of 200 ppm, cotton leaf discs sprayed, adult white flies, 6 days after incubation
Protocol: Example B1: Bemisia tabaci (Cotton White Fly): Feeding/Contact Activity
Cotton leaf discs were placed on agar in 24-well microtiter plates and sprayed with aqueous test solutions prepared from 10′000 ppm DMSO stock solutions. After drying the leaf discs were infested with adult white flies. The samples were checked for mortality 6 days after incubation.

CCC(=O)NCc1cc(OC[C@H](C)N(C(=O)CC)S(=O)(=O)C(F)(F)F)ccc1Cl [P-18, N-[[2-chloro-5-[(2S)-2-[propanoyl(trifluoro-methylsulfonyl)amino]propoxy]phenyl]methyl] propanamide]
≥ 80%: percent effect (mortality or growth inhibition) at 200 ppm [1] | percent effect (mortality or growth inhibition) at 200 ppm [2] | inhibition at 200 ppm [3] | mortality at 12 ppm [4] | inhibition at 200 ppm [5] | percent effect (mortality or growth inhibition) at 200 ppm [6] | mortality at 200 ppm [7] | mortality at 200 ppm [8]

CCC(=O)NCc1cc(OC[C@H](C)NS(=O)(=O)C(F)(F)F)cnc1Cl [P-1]
≥ 80%: mortality at 200 ppm [9] | mortality at 12 ppm [4]

C[C@@H](COc1cnc(Cl)c(CNC(=O)C2CCC2)c1)NS(=O)(=O)C(F)(F)F [P-24]
≥ 80%: inhibition at 200 ppm [3] | mortality at 12 ppm [4] | inhibition at 200 ppm [5]

C[C@@H](COc1cnc(Cl)c(CNC(=O)C2CC(F)(F)C2)c1)NS(=O)(=O)C(F)(F)F [P-35, N-[[2-chloro-5-[(2S)-2-(trifluoromethylsul-fonylamino)propoxy]-3-pyridyl]methyl]-3,3-difluoro-cyclobutane-carboxamide]
≥ 80%: inhibition at 200 ppm [3] | inhibition at 200 ppm [5]

C[C@@H](COc1cnc(Cl)c(CNC(=O)C2CCC2(F)F)c1)NS(=O)(=O)C(F)(F)F (stereo partly shown) [P-22]
≥ 80%: inhibition at 200 ppm [3]

CCC(=O)NCc1cc(OC[C@H](C)N(COC)S(=O)(=O)C(F)(F)F)cnc1Cl [P-5, N-[[2-chloro-5-[(2S)-2-[methoxymethyl(tri-fluoromethylsulfonyl)-amino]propoxy]-3-pyridyl]methyl]propan-amide]
≥ 80%: mortality at 200 ppm [9] | mortality at 12 ppm [4] | inhibition at 200 ppm [5]

CCC(=O)NC(C)(C)c1cc(OC[C@H](C)NS(=O)(=O)C(F)(F)F)ccc1Cl [P-15, N-[1-[2-chloro-5-[(2S)-2-(trifluoromethylsul-fonylamino)propoxy]phenyl]-1-methylethyl] propanamide]
≥ 80%: mortality at 200 ppm [8]

CCC(=O)NCc1cc(OC[C@H](C)NS(=O)(=O)C(F)(F)F)ccc1Cl [P-4]
≥ 80%: percent effect (mortality or growth inhibition) at 200 ppm [1] | percent effect (mortality or growth inhibition) at 200 ppm [2] | mortality at 200 ppm [10] | mortality at 200 ppm [9] | mortality at 12 ppm [4] | inhibition at 200 ppm [5] | percent effect (mortality or growth inhibition) at 200 ppm [6] | mortality at 200 ppm [8]

C[C@@H](COc1cnc(Cl)c(CNC(=O)C23CC(C(F)(F)F)(C2)C3)c1)NS(=O)(=O)C(F)(F)F [P-25, N-[[2-chloro-5-[(2S)-2-(trifluoromethylsulfon-ylamino)propoxy]-3-pyridyl]methyl]-3-(tri-fluoromethyl)bicyclo [1.1.1]pentane-1-carbox-amide]
≥ 80%: inhibition at 200 ppm [3]

CCC(=O)NCc1cc(OC[C@H](C)N(COC)S(=O)(=O)C(F)(F)F)ccc1Cl [P-3, N-[[2-chloro-5-[(2S)-2-[methoxymethyl(tri-fluoromethylsulfonyl)-amino]propoxy]phenyl]methyl]propanamide]
≥ 80%: mortality at 200 ppm [11] | percent effect (mortality or growth inhibition) at 200 ppm [1] | percent effect (mortality or growth inhibition) at 200 ppm [2] | mortality at 200 ppm [10] | mortality at 200 ppm [9] | mortality at 12 ppm [4] | inhibition at 200 ppm [5] | percent effect (mortality or growth inhibition) at 200 ppm [6] | mortality at 200 ppm [8]

C[C@@H](COc1ccc(Cl)c(CNC(=O)C2CC2)c1)NS(=O)(=O)C(F)(F)F [P-2]
≥ 80%: mortality at 200 ppm [9] | mortality at 12 ppm [4] | inhibition at 200 ppm [5] | percent effect (mortality or growth inhibition) at 200 ppm [6] | mortality at 200 ppm [8]

Reference: patent US20260215423A1, “NOVEL CARBOXAMIDE AND SULFONAMIDE PESTICIDAL COMPOUNDS” (SYNGENTA CROP PROTECTION AG, priority 2023, published 2026)
